Laboratory results: patent US4310533A, “Guanidinobenzoic acid derivatives” (Ono Pharmaceutical Co., Ltd., priority 1979, dated 1982)
pIC50: −log10 of the molar value. Structures can show the parent of a compound that is named as a salt.

How the values were obtained:
plasmin [1] = details: prior art; cited from earlier work
Solubility in water = assay type: physicochemical
trypsin = target: T1, trypsin (Bos taurus, UniProt P00760); test: Inhibitory activity on trypsin in vitro (hydrolysis of p-tosylarginine methyl ester); assay type: biochemical; details: trypsin 0.5 μg, 37° C., 30 minutes, read-out: 50% Inhibition Concentration (molar concentration), Anti-Trypsin
T1 sequence (P00760 24-246): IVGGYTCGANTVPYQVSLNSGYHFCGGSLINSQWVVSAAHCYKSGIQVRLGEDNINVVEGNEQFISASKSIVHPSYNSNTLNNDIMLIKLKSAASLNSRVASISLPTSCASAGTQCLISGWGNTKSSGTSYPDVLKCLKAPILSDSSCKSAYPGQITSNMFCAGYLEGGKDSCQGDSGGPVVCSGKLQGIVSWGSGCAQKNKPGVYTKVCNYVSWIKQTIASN
Description: The inhibitory activities on trypsin and plasmin in vitro were determined by the methods of M. Muramatsu et al. described in the Journal of Biochemistry, 58, 214 (1965) for trypsin, and ibid., 57, 402 (1964) for plasmin, and the results are shown in Table 1
^(1) The concentration of the compounds represented by the general
formula (I) at which the activity of trypsin 0.5 μg to hydrolyze
ptosylarginine methyl ester was 50% inhibited, when treated at 37°

plasmin [2] = target: T2, plasmin (Homo sapiens, UniProt P00747); test: Inhibitory activity on plasmin in vitro (euglobulin/streptokinase/fibrinogen system); assay type: biochemical; details: human euglobulin, streptokinase, fibrinogen, borate saline buffer pH 7.4, 37° C., 30 minutes; read-out: 50% Inhibition Concentration (molar concentration), Anti-Plasmin
T2 construct: from tissue; host or cells: human euglobulin (plasma fraction), with streptokinase added
T2 sequence (P00747 581-810 limits assumed): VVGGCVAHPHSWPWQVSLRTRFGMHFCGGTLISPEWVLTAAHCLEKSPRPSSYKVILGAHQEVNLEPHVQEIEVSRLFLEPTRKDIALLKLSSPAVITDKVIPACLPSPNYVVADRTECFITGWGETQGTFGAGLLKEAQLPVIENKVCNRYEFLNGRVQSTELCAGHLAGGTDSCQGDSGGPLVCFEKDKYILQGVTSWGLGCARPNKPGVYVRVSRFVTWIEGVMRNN
T2 sequence (P00747 97-580 limits assumed): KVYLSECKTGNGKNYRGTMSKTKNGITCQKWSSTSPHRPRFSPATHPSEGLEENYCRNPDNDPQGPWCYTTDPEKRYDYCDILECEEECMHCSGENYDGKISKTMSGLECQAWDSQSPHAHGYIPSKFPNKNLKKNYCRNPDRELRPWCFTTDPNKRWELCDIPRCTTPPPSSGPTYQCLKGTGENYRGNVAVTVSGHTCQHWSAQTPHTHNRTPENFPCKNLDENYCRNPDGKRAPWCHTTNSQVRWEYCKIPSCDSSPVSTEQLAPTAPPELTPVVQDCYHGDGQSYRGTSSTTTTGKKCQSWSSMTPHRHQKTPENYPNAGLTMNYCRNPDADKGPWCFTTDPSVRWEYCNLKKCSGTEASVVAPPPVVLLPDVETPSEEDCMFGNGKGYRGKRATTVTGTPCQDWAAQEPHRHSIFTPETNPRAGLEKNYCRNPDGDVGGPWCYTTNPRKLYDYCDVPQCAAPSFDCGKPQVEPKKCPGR
Description: ^(2) The concentration of the compounds represented by the general
formula (I) at which the activity of plasmin was 50% inhibited, when
reacted in a system comprising 0.1 ml of humaneuglobulin (10 fold
dilution), 0.1 ml of streptokinase (2,000 unit/ml), 0.4 ml of fibrinogen
(4% solution), 0.3 ml of a 0.1M borate saline buffer solution (pH 7.4) an
0.1 ml of a solution of each of the compounds at 37° C. for 30

NC[C@H]1CC[C@H](C(=O)O)CC1 [Compound No. 3, trans-4-aminomethylcyclohexanecarboxylic acid]
anti-plasmin activity (in words) (plasmin [1]): relatively low activities

CS(=O)(=O)O.N=C(N)Nc1ccc(C(=O)Oc2ccc(C(=O)OCC(=O)N3CCCCC3)cc2)cc1 [Compound No. 1, piperidinocarbonylmethyl 4-(4-guanidinobenzoyloxy)benzoate mesylate]
solubility (Solubility in water): 20 mM | pIC50 (trypsin): 9.30 | pIC50 (plasmin [2]): 9.35

N=C(N)Nc1ccc(C(=O)Oc2ccc(C(=O)OCC(=O)NC3CCCCC3)cc2)cc1 [Compound No. 2, N-cyclohexylcarbamoylmethyl 4-(4-guanidinobenzoyloxy)benzoate mesylate]
solubility (Solubility in water): 20 mM | pIC50 (trypsin): 9.74 | pIC50 (plasmin [2]): 9.89
